Measured values taken from patent US20070219208A1, “Methods for Treating Cancer” (priority 2006, published 2007).
Entries after “also recorded” stand apart in the source; their conditions may differ.

Key:
Format in all cases: cell-based
[1] = test system: MCF-7 cells; assay: 3H-thymidine uptake (DNA synthesis / cell proliferation); details: mevalonate 20 μM with simvastatin or fluvastatin
Description: Thymidine Uptake Studies:
DNA synthesis was measured by monitoring the uptake of tritiated thymidine, [^3H]TdR (Perkin-Elmer, Boston, Mass.). Cells (5×10^5/ml) were cultured with different concentrations of simvastatin or fluvastatin (0-10 μM) in the presence or absence of mevalonate (20 μM), 1400 W, or sepiapterin. Cells were pulse-chased with [^3H]TdR [0.5 μCi (0.185 MBq)/well during the last 3 h of a 24 h culture, harvested onto glass filters with an automatic cell harvester (Cambridge Technology, Cambridge, Mass.), and counted using the LKB Betaplate scintillation counter (Wallac, Gaithersburg, Md.). All experiments were performed in triplicate and repeated three times.

[2] = test system: NO2-/NO3- levels in MCF-7 cells; assay: Nitrite and nitrate measurements by chemiluminescence (NO analyzer); details: with simvastatin or fluvastatin (10 μM), 40 h; mevalonate 20 μM, 1400 W 10 μM, sepiapterin 50 μM; compared to statin alone
Description: Briefly, following treatments, cells were washed three times with DPBS after aspirating the medium. To this, 1 ml of Hanks' balanced salt mixture containing 25 μM L-arginine was added and incubated for 30 min at 37° C. The medium was collected and centrifuged for 5 min at 5000 rpm, and 50 μl of the clear supernatant was used for nitrate and nitrite analysis. Each sample was analyzed in triplicate.

[3] = test system: arginase II in MCF-7 cells; assay: Arginase II transcript levels by RT-PCR; details: mevalonate 20 μM
Description: Following the treatments, medium was aspirated and 1 ml of TRIzol reagent (Invitrogen) was added and total RNA was extracted using the manufacturer's protocol. Five μg of RNA was used for the first strand cDNA synthesis using a first strand cDNA synthesis kit (Amersham Biosciences). Four μl of the cDNA mixture was used to amplify mRNA's of iNOS [(5′-[…]-3′, SEQ ID NO:1) and (5′-[…]-3′, SEQ ID NO:2)], arginase I [(5′-[…]-3′, SEQ ID NO:3) and (5′-[…]-3′, SEQ ID NO:4)], arginase II [(5′-[…]-3′, SEQ ID NO:5) and (5′-[…]-3′, SEQ ID NO:6)], and eNOS [(5′-[…]-3′, SEQ ID NO:7) and (5′-[…]-3′, SEQ ID NO:8)].

[4] = test system: MCF-7 cells; assay: Cell cycle analysis by flow cytometry; details: 1400 W 10 μM, mevalonate 20 μM
Description: For DNA content analysis, harvested cells were centrifuged at 1,000×g for 5 min, fixed by the gradual addition of ice-cold 70% ethanol, and washed with PBS. Cells were then treated with RNase (10 μg/mL) for 30 min at 37° C., washed once with PBS, and resuspended and stained in 1 mL of 69 μmol/L propidium iodide in 38 mmol/L sodium citrate for 30 min at room temperature. The cell cycle phase distribution was determined by analytic DNA flow cytometry as described in (Vindelov L, et al. Methods Cell Biol, 33:127-37, 1990). The percentage of cells in each phase of the cell cycle was analyzed using a Modfit software (Verity Software House, Topsham, Me.).
As NO has previously been reported to exert tumor cell cycle alterations (Pervin S, et al. Natl Acad Sci USA 98:3583-3588, 2001), we investigated the cytostatic effect of statins in MCF-7 cells. MCF-7 cells were treated with simvastatin and fluvastatin for […] in the presence and absence of 1400 W (10 μM) and mevalonate (20 μM). Cell cycle progression was examined using FACScan flow cytometry analysis. […] As cell cycle progression from […] involves activations of the cell regulatory proteins, cyclins D and E, we investigated the effects of statins and iNOS inhibitor on the cell cycle proteins. […]

[5] = test system: cyclin D1, cyclin E and p27 in MCF-7 cells; assay: Cell cycle protein levels by Western analysis (cyclin D1, cyclin E, p27); details: 1400 W 10 μM or mevalonate 20 μM
Description: A (Table): The cell cycle distribution of MCF-7 cells treated with either simvastatin or fluvastatin (5-10 μM) for 40 h in the presence or 1400 W (10 μM) or mevalonate (20 μM). The cell sorting was performed by flow cytometry as described in “Materials and Methods.” B: Cells were treated with simvastatin or fluvastatin (10 μM) in the presence or absence of 1400 W (10 μM) or mevalonate (20 μM) for 40 h and cyclins D1 and E protein levels were measured by the Western analysis using the corresponding polyclonal or monoclonal antibodies. Data are representative of three separate experiments.
After treatment with statins, cells were washed with ice-cold DPBS and resuspended in 150 μl of radioimmune precipitation assay buffer (20 mM Tris-HCl, pH 7.4, 2.5 mM EDTA, 1% Triton X-100, 1% sodium deoxycholate, 1% SDS, 100 mM NaCl, 100 mM sodium fluoride) containing 1 mM sodium vanadate, 10 μg/ml aprotinin, 10 μg/ml leupeptin, and 10 μg/ml pepstatin inhibitors. Cells were homogenized by passing the suspension through a 25-gauge needle (20 strokes). The lysate was centrifuged at 750×g for 10 min at 4° C. to pellet out the nuclei. The remaining supernatant was centrifuged for 30 min at 12,000×g. Protein was determined using the Lowry method and 50 μg of the lysate was used for the Western blot analysis. […] The band was detected using the ECL method (Amersham Biosciences).

What does the source list for CC(O)(CCO)CC(=O)O (centres unmarked) [mevalonate]?
effect on statin inhibition of 3H-thymidine uptake [1]: partially reversed; effect on statin-induced NO / NO2-/NO3- levels [2]: inhibited; also recorded: suppressed; effect on statin-induced down-regulation of Arg II level [3]: reversed; effect on statin-induced cell cycle alterations [4]: almost completely reversed; effect on statin-induced decrease of cyclin D1 and cyclin E [5]: restored in part
